Measurements published in patent publication US9556165B2 (priority 2012, dated 2017).
In brackets after ≈: the same amount, converted by molar mass. Read-outs that look alike come from different tables or passages of the source.

Assays:
Type in all cases: cell-based
[1] = test system: P. aeruginosa 2297 (AmpC wt); experiment: MIC determination, broth microdilution (CLSI); conditions: Pseudomonas aeruginosa, strain 7
[2] = test system: C. freundii K21/3034; experiment: MIC determination, broth microdilution (CLSI); conditions: Citrobacter freundii, K21/3034, strain 4
[3] = test system: M. morganii 126/3048; experiment: MIC determination, broth microdilution (CLSI); conditions: Morganella morganii, 126/3048, strain 5
[4] = test system: C. perfringens DSM756; experiment: microbe, parasite or virus in culture; conditions: Clostridium perfringens, DSM756, read-out: MIC strain 16 (C. perfringens DSM756), strain 16; broth microdilution
[5] = test system: E. cloacae 34654; experiment: MIC determination, broth microdilution (CLSI); conditions: Enterobacter cloacae, 34654, strain 3
[6] = test system: P. aeruginosa PAO1; experiment: MIC determination, broth microdilution (CLSI); conditions: Pseudomonas aeruginosa, PAO1, strain 6
[7] = test system: E. coli J62; experiment: MIC determination, broth microdilution (CLSI); conditions: Escherichia coli, J62, strain 17; broth microdilution; read-out: MIC strain 17 (E. coli J62)
[8] = test system: A. baumannii ATCC15308; experiment: MIC determination, broth microdilution (CLSI); conditions: Acinetobacter baumannii, ATCC15308, strain 9
[9] = test system: S. aureus 133; experiment: MIC determination, broth microdilution (CLSI)
[10] = test system: B. fragilis 6688; experiment: MIC determination, broth microdilution (CLSI); conditions: Bacteroides fragilis, 6688, strain 15; broth microdilution; read-out: MIC strain 15 (B. fragilis 6688)
[11] = test system: S. pneumoniae 113; experiment: MIC determination, broth microdilution (CLSI); conditions: Streptococcus pneumoniae, 113, strain 13; broth microdilution; read-out: MIC strain 13 (S. pneumoniae 113)
[12] = test system: E. coli J62-TEM-3; experiment: MIC determination, broth microdilution (CLSI); conditions: Escherichia coli, J62TEM3, read-out: MIC strain 18 (E. coli J62-TEM-3), strain 18; broth microdilution
[13] = test system: E. coli ATCC25922; experiment: MIC determination, broth microdilution (CLSI); conditions: Escherichia coli, ATCC25922, strain 1
[14] = test system: K. pneumoniae 60; experiment: MIC determination, broth microdilution (CLSI); conditions: Klebsiella pneumoniae, 60, strain 2
[15] = test system: S. maltophilia ICB7569; experiment: MIC determination, broth microdilution (CLSI); conditions: Stenotrophomonas maltophilia, ICB7569, strain 10
[16] = test system: P. aeruginosa 2297-con (AmpC derepressed); experiment: MIC determination, broth microdilution (CLSI); conditions: Pseudomonas aeruginosa, read-out: strain 8 MIC, strain 8
[17] = test system: H. influenzae ATCC 49247; experiment: MIC determination, broth microdilution (CLSI); conditions: Haemophilus influenzae, ATCC49247, strain 12; broth microdilution; read-out: MIC strain 12 (H. influenzae ATCC 49247)
[18] = test system: Bacteria; experiment: MIC determination in combination with β-lactamase inhibitors (constant 4 μg/mL)
[19] = Staphylococcus aureus, 133, strain 11, read-out: strain 11 MIC
[20] = Staphylococcus aureus, 133, strain 14, broth microdilution, read-out: MIC strain 14 (S. aureus 133)

SMILES	MIC [1] [µg/mL]	MIC [2] [µg/mL]	MIC [3] [µg/mL]	MIC [4] [µg/mL]	MIC [5] [µg/mL]	MIC [6] [µg/mL]	MIC [7] [µg/mL]	MIC [8] [µg/mL]	MIC [9, 19] [µg/mL]	MIC [10] [µg/mL]	MIC [11] [µg/mL]	MIC [12] [µg/mL]	MIC [13] [µg/mL]	MIC [14] [µg/mL]	MIC [15] [µg/mL]	MIC [16] [µg/mL]	MIC [17] [µg/mL]	MIC strain 19 (E. coli J62-TEM-3 + 4 μg/mL clavulanic acid) [18] [µg/mL]	MIC strain 20 (E. coli J62-TEM-3 + 4 μg/mL sulbactam) [18] [µg/mL]	MIC strain 21 (E. coli J62-TEM-3 + 4 μg/mL tazobactam) [18] [µg/mL]	also measured
CN(C)CCNC(=N)c1ccc(OCCO/N=C(\C(=O)N[C@@H]2C(=O)N(OS(=O)(=O)O)C2(C)C)c2csc(N)n2)cc1 [Example 40, (2Z)-2-(2-Amino-1,3-thiazol-4-yl)-2-{[2-(4-{N-[2-(dimethylamino)ethyl]carbamimidoyl}phenoxy)ethoxy]imino}-N-[(3S)-2,2-dimethyl-4-oxo-1-(sulfooxy)azetidin-3-yl]ethanamide]	8 (≈ 13.1 µM)	0.125 (≈ 0.204 µM)	0.5 (≈ 0.816 µM)	2 (≈ 3.26 µM)	0.5 (≈ 0.816 µM)	4 (≈ 6.53 µM)	0.25 (≈ 0.408 µM)	2 (≈ 3.26 µM)	≤ 0.063	4 (≈ 6.53 µM)	≤ 0.063	8 (≈ 13.1 µM)	0.125 (≈ 0.204 µM)	0.25 (≈ 0.408 µM)	16 (≈ 26.1 µM)	4 (≈ 6.53 µM)	≤ 0.063	0.125	0.25	0.25	
CC1(C)[C@H](NC(=O)/C(=N\OCCOc2ccc(C(=N)N)cc2)c2csc(N)n2)C(=O)N1OS(=O)(=O)O [Example 41, (2Z)-2-(2-Amino-1,3-thiazol-4-yl)-2-{[2-(4-carbamimidoylphenoxy)ethoxy]imino}-N-[(3S)-2,2-dimethyl-4-oxo-1-(sulfooxy)azetidin-3-yl]ethanamide]	4 (≈ 7.39 µM)	0.125 (≈ 0.231 µM)	0.25 (≈ 0.462 µM)	1 (≈ 1.85 µM)	0.25 (≈ 0.462 µM)	4 (≈ 7.39 µM)	0.25 (≈ 0.462 µM)	1 (≈ 1.85 µM)	≤ 0.063	2 (≈ 3.69 µM)	≤ 0.063	8 (≈ 14.8 µM)	0.25 (≈ 0.462 µM)	0.5 (≈ 0.923 µM)	4 (≈ 7.39 µM)	4 (≈ 7.39 µM)	≤ 0.063	0.25	0.25	0.25	MIC [9, 20]: 4 µg/mL (≈ 7.39 µM)
CN(C)C(=O)[C@@H]1C[C@H](NC(=N)c2ccc(OCCO/N=C(\C(=O)N[C@@H]3C(=O)N(OS(=O)(=O)O)C3(C)C)c3csc(N)n3)cc2)CN1 [Example 42, (4S)-4-{[{4-[2-({[(1Z)-1-(2-Amino-1,3-thiazol-4-yl)-2-{[(3S)-2,2-dimethyl-4-oxo-1-(sulfooxy)azetidin-3-yl]amino}-2-oxoethylidene]amino}oxy)ethoxy]phenyl}(imino)methyl]amino}-N,N-dimethyl-L-prolinamide]	16 (≈ 23.5 µM)	1 (≈ 1.47 µM)	2 (≈ 2.93 µM)	4 (≈ 5.87 µM)	2 (≈ 2.93 µM)	16 (≈ 23.5 µM)	1 (≈ 1.47 µM)	8 (≈ 11.7 µM)	≤ 0.063	8 (≈ 11.7 µM)	0.125 (≈ 0.183 µM)	16 (≈ 23.5 µM)	1 (≈ 1.47 µM)	1 (≈ 1.47 µM)	16 (≈ 23.5 µM)	16 (≈ 23.5 µM)	0.25 (≈ 0.367 µM)	1	1	1	MIC [9, 20]: 16 µg/mL (≈ 23.5 µM)
CC(=N)N1CC[C@H](NC(=N)c2ccc(OCCO/N=C(\C(=O)N[C@@H]3C(=O)N(OS(=O)(=O)O)C3(C)C)c3csc(N)n3)cc2)C1 [Example 43, (2Z)-2-(2-Amino-1,3-thiazol-4-yl)-N-[(3S)-2,2-dimethyl-4-oxo-1-(sulfooxy)azetidin-3-yl]-2-{[2-(4-{N-[(3S)-1-ethanimidoylpyrrolidin-3-yl]carbamimidoyl}phenoxy)ethoxy]-imino}ethanamide]	8 (≈ 12.3 µM)	0.25 (≈ 0.384 µM)	1 (≈ 1.53 µM)	2 (≈ 3.07 µM)	1 (≈ 1.53 µM)	8 (≈ 12.3 µM)	0.5 (≈ 0.767 µM)	0.5 (≈ 0.767 µM)		8 (≈ 12.3 µM)	≤ 0.063	8 (≈ 12.3 µM)	0.5 (≈ 0.767 µM)	0.5 (≈ 0.767 µM)	32 (≈ 49.1 µM)	8 (≈ 12.3 µM)	0.125 (≈ 0.192 µM)	0.25	0.5	0.5	MIC [9, 20]: 4 µg/mL (≈ 6.14 µM)
